Assay results taken from paper PMC4071596, “Eurothiocin A and B, Sulfur-Containing Benzofurans from a Soft Coral-Derived Fungus Eurotium rubrum SH-823” (Marine Drugs, 2014).

Columns and labels:
α-glucosidase = α-glucosidase (Saccharomyces cerevisiae, UniProt P53341); assay: α-Glucosidase inhibitory activity assay (p-nitrophenyl-α-glucopyranoside hydrolysis, absorbance at 400 nm); assay type: biochemical; details: for type of inhibition of α-glucosidase (Lineweaver-Burk plot method): kinetic studies at increasing concentration of substrates and inhibitors
Sequence of α-glucosidase (P53341 whole entry): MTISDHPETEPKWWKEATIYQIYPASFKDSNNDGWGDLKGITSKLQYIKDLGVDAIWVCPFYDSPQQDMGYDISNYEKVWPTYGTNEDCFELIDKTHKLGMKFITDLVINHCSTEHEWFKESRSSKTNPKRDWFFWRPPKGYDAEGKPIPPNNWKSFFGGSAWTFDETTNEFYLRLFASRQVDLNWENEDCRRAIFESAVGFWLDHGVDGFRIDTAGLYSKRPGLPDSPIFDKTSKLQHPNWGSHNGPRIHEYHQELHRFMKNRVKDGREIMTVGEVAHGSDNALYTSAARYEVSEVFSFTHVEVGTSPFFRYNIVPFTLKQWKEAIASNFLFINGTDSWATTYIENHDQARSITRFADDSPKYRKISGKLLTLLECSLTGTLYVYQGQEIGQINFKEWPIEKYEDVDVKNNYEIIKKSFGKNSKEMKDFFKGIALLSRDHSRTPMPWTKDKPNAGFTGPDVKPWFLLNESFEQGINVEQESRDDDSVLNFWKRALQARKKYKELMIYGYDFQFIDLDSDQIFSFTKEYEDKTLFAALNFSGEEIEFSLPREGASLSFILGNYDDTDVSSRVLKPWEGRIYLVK
Protocol: α-Glucosidase was assayed according to standard procedures by following the hydrolysis of nitrophenyl glycosides by monitoring formation of p-nitrophenol spectrometrically at 400 nm. The reaction mixture (final volume, 1 mL) consisted of the enzyme solution (20 μL, Sigma 9001-42-7, E.C 3.2.1.20), substrate (10 mM p-nitrophenyl-α-glucopyranoside, 20 μL, Fluka, BioChemika, Buchs, Switzerland) in 50 mM potassium phosphate buffer (pH 7.0) and test sample dissolved in DMSO (20 μL). The inhibitors were pre-incubated with the enzyme at 37 °C for 30 min, and the substrate was then added. The reaction was monitored spectrophotometrically by measuring the absorbance at 400 nm. […] The inhibitory activity of test compound was determined as a percentage in comparison to a blank according with the following equation: The inhibition rates (%) = [(ODcontrol − ODcontrol blank) − (ODtest − ODtest blank)]/(ODcontrol − ODcontrol blank) × 100%. The IC50 values of compounds were calculated by the nonlinear regression analysis and expressed as the mean ± SD of two distinct experiments. Kinetic parameters were determined using the Lineweaver-Burk double-reciprocal plot method at increasing concentration of substrates and inhibitors.

type of inhibition of α-glucosidase (Lineweaver-Burk plot method) (α-glucosidase)	melting point	Compound	IC50 (α-glucosidase; mean ± SD from two independent experiments, pre-incubated with the enzyme at 37 °C for 30 min, pH 7.0)
competitive inhibitors	–	CSC(=O)c1c(C)cc2c(c1O)CC(C(C)(C)O)O2 (stereo not shown) [Compound 1, eurothiocin A]	–
competitive inhibitors	122 to 123 °C	CSC(=O)c1c(C)cc2c(c1O)CC(C(C)(O)CO)O2 (stereo not shown) [Compound 2, eurothiocin B]	–
–	–	butyrolactone I [Compound 4]	98.5 ± 3.3 µM
